Laboratory results reported in patent publication US11926614B2, “1,2,4-triazole derivatives as tankyrase inhibitors” (priority 2018, dated 2024).
Read-outs that look alike come from different tables or passages of the source.

How the values were obtained:
HEK293 = test: Cellular IC50 HEK293; type: cell-based; settings: Homo sapiens
Description: (§1) XLfit (idbs) was used to determine the IC50-values in inhibition experiments. The following formula was chosen to fit the data points (Langmuir Binding Isotherm): fit=((A+(B*x))+4(C−B)*(1−exp((−1*D)*x)))/D)), res=(y−fit)

TNKS2 = TNKS2 (Homo sapiens (Human), UniProt Q9H2K2); test: Biochemical IC50 TNKS2; settings: read-out: Biochemical IC50 TNKS2
TNKS2, sequence (Q9H2K2 whole entry): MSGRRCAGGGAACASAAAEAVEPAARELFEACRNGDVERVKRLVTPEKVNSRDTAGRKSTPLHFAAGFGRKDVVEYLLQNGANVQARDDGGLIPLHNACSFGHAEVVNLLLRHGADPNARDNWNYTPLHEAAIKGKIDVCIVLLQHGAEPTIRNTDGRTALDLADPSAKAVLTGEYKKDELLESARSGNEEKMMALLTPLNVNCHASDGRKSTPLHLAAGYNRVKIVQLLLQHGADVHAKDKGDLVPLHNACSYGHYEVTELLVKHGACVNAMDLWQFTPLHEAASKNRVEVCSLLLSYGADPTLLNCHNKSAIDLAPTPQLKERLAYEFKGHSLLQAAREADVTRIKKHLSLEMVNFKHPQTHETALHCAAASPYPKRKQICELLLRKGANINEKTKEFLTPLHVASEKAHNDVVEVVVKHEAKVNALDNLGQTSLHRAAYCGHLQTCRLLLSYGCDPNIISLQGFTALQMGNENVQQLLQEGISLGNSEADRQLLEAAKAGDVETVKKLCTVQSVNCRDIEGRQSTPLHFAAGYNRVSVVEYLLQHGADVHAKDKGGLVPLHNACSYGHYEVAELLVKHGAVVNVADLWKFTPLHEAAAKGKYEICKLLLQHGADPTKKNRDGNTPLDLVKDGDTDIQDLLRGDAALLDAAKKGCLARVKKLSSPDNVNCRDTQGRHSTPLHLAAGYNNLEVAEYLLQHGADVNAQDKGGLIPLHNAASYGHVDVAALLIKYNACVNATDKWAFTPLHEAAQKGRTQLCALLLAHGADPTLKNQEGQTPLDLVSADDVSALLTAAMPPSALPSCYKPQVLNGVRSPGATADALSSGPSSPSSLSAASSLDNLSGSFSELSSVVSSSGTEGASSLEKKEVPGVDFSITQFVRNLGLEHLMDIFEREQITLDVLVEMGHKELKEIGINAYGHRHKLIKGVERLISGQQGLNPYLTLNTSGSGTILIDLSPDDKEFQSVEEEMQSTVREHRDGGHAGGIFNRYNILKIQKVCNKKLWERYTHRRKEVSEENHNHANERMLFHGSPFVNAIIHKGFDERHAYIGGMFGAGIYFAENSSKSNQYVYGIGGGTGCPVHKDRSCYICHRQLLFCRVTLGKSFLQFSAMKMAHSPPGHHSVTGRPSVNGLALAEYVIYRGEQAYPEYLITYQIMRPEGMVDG
Description: as §1

[1] = HEK293, HEK293, read-out: Cellular IC50 HEK293
[2] = HEK293, read-out: Cellular IC50 HEK293

Row | Structure (SMILES) | IC50 (HEK293; [1]) [nM] | IC50 (TNKS2) [nM] | IC50 (HEK293; [2]) [nM]
1 | CCOc1ccc(-c2nnc([C@H]3C[C@H](NC(=O)c4cccc5cn[nH]c45)C3)n2-c2ccccc2F)nc1 [Example 156, N-((1S,3r)-3-(5-(5-ethoxypyridin-2-yl)-4-(2-fluorophenyl)-4H-1,2,4-triazol-3-yl)cyclobutyl)-1H-indazole-7-carboxamide] | 67 | 21 | –
2 | CCOc1ccc(-c2nnc([C@H]3C[C@H](NC(=O)c4ccc(C(C)(C)O)cn4)C3)n2-c2ccccc2F)nc1 [Example 101, N-((1S,3r)-3-(5-(5-ethoxypyridin-2-yl)-4-(2-fluorophenyl)-4H-1,2,4-triazol-3-yl)cyclobutyl)-5-(2-hydroxypropan-2-yl)picolinamide] | 96 | 22 | –
3 | CCOc1ccc(-c2nnc([C@H]3C[C@H](NC(=O)c4cc5ncccc5[nH]4)C3)n2-c2ccccc2F)nc1 [Example 148, N-((1S,3r)-3-(5-(5-ethoxypyridin-2-yl)-4-(2-fluorophenyl)-4H-1,2,4-triazol-3-yl)cyclobutyl)-1H-pyrrolo[3,2-b]pyridine-2-carboxamide] | 8 | 5 | –
4 | O=C(N[C@H]1C[C@H](c2nnc(-c3nccs3)n2-c2cccnc2)C1)c1ccccn1 [Example 109, N-((1r,3r)-3-(4-(pyridin-3-yl)-5-(thiazol-2-yl)-4H-1,2,4-triazol-3-yl)cyclobutyl)picolinamide] | 4700 | 800 | –
5 | CCOc1ccc(-c2nnc([C@H]3C[C@H](NC(=O)c4ccccn4)C3)n2-c2ccccc2)nc1 [Example 68, N-((1r,3r)-3-(5-(5-ethoxypyridin-2-yl)-4-phenyl-4H-1,2,4-triazol-3-yl)cyclobutyl)picolinamide] | – | 5.2 | 65
6 | O=C(NC12CC(c3nnc(-c4ccncn4)n3-c3ccccc3Cl)(C1)C2)c1ccnc2cccnc12 [Example 21, N-(3-(4-(2-chlorophenyl)-5-(pyrimidin-4-yl)-4H-1,2,4-triazol-3-yl)bicyclo[1.1.1]pentan-1-yl)-1,5-naphthyridine-4-carboxamide] | 0.5 | 1.8 | –
7 | CCOc1ccc(-c2nnc([C@H]3C[C@H](NC(=O)c4ccc(F)cc4)C3)n2-c2ccccc2)nc1 [Example 70, N-((1r,3r)-3-(5-(5-ethoxypyridin-2-yl)-4-phenyl-4H-1,2,4-triazol-3-yl)cyclobutyl)-4-fluorobenzamide] | 48 | 8.5 | –
8 | N#Cc1cccc(C(=O)N[C@H]2C[C@H](c3nnc(-c4ccncn4)n3-c3ccccc3Cl)C2)c1 [Example 132, N-((1R,3r)-3-(4-(2-chlorophenyl)-5-(pyrimidin-4-yl)-4H-1,2,4-triazol-3-yl)cyclobutyl)-3-cyanobenzamide] | 39 | 6.6 | –
9 | CCOc1ccc(-c2nnc([C@H]3C[C@H](NC(=O)c4ccc5ncccc5n4)C3)n2-c2ccncc2)nc1 [Example 169, N-((1r,3r)-3-(5-(5-ethoxypyridin-2-yl)-4-(pyridin-4-yl)-4H-1,2,4-triazol-3-yl)cyclobutyl)-1,5-naphthyridine-2-carboxamide] | 58 | 28 | –
10 | CCOc1ccc(-c2nnc([C@H]3C[C@H](NC(=O)c4ccnc5cc(F)cnc45)C3)n2-c2ccccn2)nc1 [Example 160, N-((1r,3r)-3-(5-(5-ethoxypyridin-2-yl)-4-(pyridin-2-yl)-4H-1,2,4-triazol-3-yl)cyclobutyl)-7-fluoro-1,5-naphthyridine-4-carboxamide] | – | 22 | 9
11 | O=C(N[C@H]1C[C@H](c2nnc(-c3ccncn3)n2-c2ccccc2Cl)C1)c1ccccc1F [Example 13, N-((1S,3r)-3-(4-(2-chlorophenyl)-5-(pyrimidin-4-yl)-4H-1,2,4-triazol-3-yl)cyclobutyl)-2-fluorobenzamide] | 30 | 6.4 | –
12 | CCOc1ccc(-c2nnc([C@H]3C[C@H](NC(=O)c4ccccc4)C3)n2-c2ccccc2)nc1 [Example 72, N-((1r,3r)-3-(5-(5-ethoxypyridin-2-yl)-4-phenyl-4H-1,2,4-triazol-3-yl)cyclobutyl)benzamide] | 30 | 14 | –
13 | CCOc1ccc(-c2nnc([C@H]3C[C@H](NC(=O)c4ccn(C)n4)C3)n2-c2ccccc2F)nc1 [Example 120, N-((1S,3r)-3-(5-(5-ethoxypyridin-2-yl)-4-(2-fluorophenyl)-4H-1,2,4-triazol-3-yl)cyclobutyl)-1-methyl-1H-pyrazole-3-carboxamide] | 65 | 18 | –
14 | CCOc1ccc(-c2nnc([C@H]3C[C@H](NC(=O)c4ccc5cnccc5n4)C3)n2-c2ccccc2F)nc1 [Example 97, N-((1S,3r)-3-(5-(5-ethoxypyridin-2-yl)-4-(2-fluorophenyl)-4H-1,2,4-triazol-3-yl)cyclobutyl)-1,6-naphthyridine-2-carboxamide] | 7.5 | 2.5 | –
15 | O=C(N[C@H]1C[C@H](c2nnc(-c3ccncn3)n2-c2ccccc2Cl)C1)c1ccc(F)cc1 [Example 15, N-((1S,3r)-3-(4-(2-chlorophenyl)-5-(pyrimidin-4-yl)-4H-1,2,4-triazol-3-yl)cyclobutyl)-4-fluorobenzamide] | 30 | 4.1 | –
16 | O=C(N[C@H]1C[C@H](c2nnc(-c3ccc(OC(F)F)cn3)n2-c2ccccc2F)C1)c1cc(F)cc2nccnc12 [Example 186, N-((1S,3r)-3-(5-(5-(difluoromethoxy)pyridin-2-yl)-4-(2-fluorophenyl)-4H-1,2,4-triazol-3-yl)cyclobutyl)-7-fluoroquinoxaline-5-carboxamide] | – | 2.4 | 0.508
17 | O=C(N[C@H]1C[C@H](c2nnc(-c3ccccn3)n2-c2ccccc2F)C1)c1cccc2nccnc12 [Example 193, N-((1S,3r)-3-(4-(2-fluorophenyl)-5-(pyridin-2-yl)-4H-1,2,4-triazol-3-yl)cyclobutyl)quinoxaline-5-carboxamide] | – | 1.6 | 0.286
18 | O=C(N[C@H]1C[C@H](c2nnc(-c3ccc(OC(F)F)cn3)n2-c2ccccc2F)C1)c1cccc2nccnc12 [Example 185, N-((1S,3r)-3-(5-(5-(difluoromethoxy)pyridin-2-yl)-4-(2-fluorophenyl)-4H-1,2,4-triazol-3-yl)cyclobutyl)quinoxaline-5-carboxamide] | – | 1.9 | 1.2
19 | Cc1cccc(-c2nnc([C@H]3C[C@H](NC(=O)c4cccc5nccnc45)C3)n2-c2ccccc2F)n1 [Example 201, N-((1S,3r)-3-(4-(2-fluorophenyl)-5-(6-methylpyridin-2-yl)-4H-1,2,4-triazol-3-yl)cyclobutyl)quinoxaline-5-carboxamide] | – | 1.7 | 1.5
20 | CCOc1ccc(-c2nnc([C@H]3C[C@H](NC(=O)c4cc(C)ccn4)C3)n2-c2ccccc2F)nc1 [Example 103, N-((1S,3r)-3-(5-(5-ethoxypyridin-2-yl)-4-(2-fluorophenyl)-4H-1,2,4-triazol-3-yl)cyclobutyl)-4-methylpicolinamide] | 25 | 4.5 | –
21 | CCOc1ccc(-c2nnc([C@H]3C[C@H](NC(=O)c4cccc(C(F)(F)F)n4)C3)n2-c2ccccc2F)nc1 [Example 125, N-((1S,3r)-3-(5-(5-ethoxypyridin-2-yl)-4-(2-fluorophenyl)-4H-1,2,4-triazol-3-yl)cyclobutyl)-6-(trifluoromethyl)picolinamide] | 70 | 28 | –
22 | CCOc1ccc(-c2nnc([C@H]3C[C@H](NC(=O)c4ccnc5cccnc45)C3)n2-c2ccc(Cl)s2)nc1 [Example 76, N-((1r,3r)-3-(4-(5-chlorothiophen-2-yl)-5-(5-ethoxypyridin-2-yl)-4H-1,2,4-triazol-3-yl)cyclobutyl)-1,5-naphthyridine-4-carboxamide] | 1.1 | 2 | –
23 | CC(C)Oc1ccc(-c2nnc([C@H]3C[C@H](NC(=O)c4ccccn4)C3)n2-c2ccccc2F)nc1 [Example 111, N-((1S,3r)-3-(4-(2-fluorophenyl)-5-(5-isopropoxypyridin-2-yl)-4H-1,2,4-triazol-3-yl)cyclobutyl)picolinamide] | – | 12 | 110
24 | CCOc1ccc(-c2nnc([C@H]3C[C@H](NC(=O)c4ccccc4)C3)n2-c2ccccc2F)nc1 [Example 52, N-((1S,3r)-3-(5-(5-ethoxypyridin-2-yl)-4-(2-fluorophenyl)-4H-1,2,4-triazol-3-yl)cyclobutyl)benzamide] | 73 | 9.5 | –
25 | CCOc1ccc(-c2nnc(C34CC(NC(=O)c5ccnc6cccnc56)(C3)C4)n2-c2ccccc2)nc1 [Example 64, N-(3-(5-(5-ethoxypyridin-2-yl)-4-phenyl-4H-1,2,4-triazol-3-yl)bicyclo[1.1.1]pentan-1-yl)-1,5-naphthyridine-4-carboxamide] | 3 | 1.4 | –
26 | Cc1ccc(-n2c(-c3nccs3)nnc2[C@H]2C[C@H](NC(=O)c3ccccn3)C2)s1 [Example 88, N-((1r,3r)-3-(4-(5-methylthiophen-2-yl)-5-(thiazol-2-yl)-4H-1,2,4-triazol-3-yl)cyclobutyl)picolinamide] | 93 | 47 | –
27 | O=C(NC12CC(c3nnc(-c4ccncn4)n3-c3ccccc3Cl)(C1)C2)c1ccccn1 [Example 22, N-(3-(4-(2-chlorophenyl)-5-(pyrimidin-4-yl)-4H-1,2,4-triazol-3-yl)bicyclo[1.1.1]pentan-1-yl)picolinamide] | 25 | 3.8 | –
28 | CCOc1ccc(-c2nnc([C@H]3C[C@H](NC(=O)c4cc5cnccc5[nH]4)C3)n2-c2ccccc2F)nc1 [Example 157, N-((1S,3r)-3-(5-(5-ethoxypyridin-2-yl)-4-(2-fluorophenyl)-4H-1,2,4-triazol-3-yl)cyclobutyl)-1H-pyrrolo[3,2-c]pyridine-2-carboxamide] | 34 | 4.4 | –
29 | O=C(N[C@H]1C[C@H](c2nnc(-c3ccncn3)n2-c2ccccc2Cl)C1)c1ccncc1 [Example 8, N-((1S,3r)-3-(4-(2-chlorophenyl)-5-(pyrimidin-4-yl)-4H-1,2,4-triazol-3-yl)cyclobutyl)isonicotinamide] | 70 | 57 | –
